Experimental data published in patent US20250154546A1, “USE OF 3'-OXYMETHYLENE ALKYL DISULFIDE PROTECTED NUCLEOTIDES FOR ENZYMATIC DNA AND RNA SYNTHESIS” (Miltenyi Biotec B.V. & Co. KG, priority 2022, published 2025).

Assay: Cleave kinetics of 3′-O-capped nucleotide in cleave mix, monitored by UPLC
Type: physicochemical
Details: 10 mM Mg2+ in the cleave mix versus none; 20 mM DMPS, pH 9.5
Procedure: A 3′-O-capped nucleotide was treated with a cleave mix DMPS/THPP and the concentration of the 3′-capped nucleotide was monitored by UPLC with a UV detector at a fixed time interval.
In [A]=−kt+In[A]0 and t1/2=In2/k with [A]: reactant concentration; k: reaction rate coefficient
Nucleotide: MeSSdATP, 4.7 mM in 1× TE buffer;
12.8 μL of nucleotide was added to 287 μL of cleave mix in a 1.5 mL of UPLC sample vial. The resulting mixture was analyzed by UPLC right away and every 10 min afterwards automatically for up to 120 min. The area of the starting nucleotide peak was measured at each time point and the value was used directly for the calculation. From the rate of peak area reduction or disappearance of the intermediate the rate constant and the half-life of the intermediate calculated as discussed earlier.

SMILES: CSSCO[C@H]1C[C@H](n2cnc3c(N)ncnc32)O[C@@H]1COP(=O)(O)OP(=O)(O)OP(=O)(O)O [MeSSdATP, 3′-O—(MeSSCH2)-dATP]
- reduction of half-life: ≤ 30%
